Measurements from patent US11787764B2, “Heptamethine cyanines for use as fluorescent markers of the biliary and renal systems” (CHILDREN'S NATIONAL MEDICAL CENTER, priority 2018, dated 2023).

Assays:
Sprague-Dawley rats = settings: rat, in vivo, iv, 90 ug/kg
[1] = Quantum yield measurement
Protocol: Fluorescence traces were recorded on a PTI QuantaMaster steady-state spectrofluorimeter operated by FelixGX 4.2.2 software, with 5 nm excitation and emission slit widths, 0.1 s integration rate, and enabled emission correction.

Structure (SMILES) | excretion into bile / biliary clearance (in words) (Sprague-Dawley rats) | quantum yield [1] [%]
CN(CCOC1=C(/C=C/C2=[N+](CCCCS(=O)(=O)[O-])c3ccccc3C2(C)C)CCC/C1=C\C=C1\N(CCCCS(=O)(=O)O)c2ccccc2C1(C)C)C(=O)CCCC(=O)O [FNIR-Ar-H_N-BS] | excellent biliary clearance | 
CC1(C)C(/C=C/C=C/C=C/C=C2\N(CCCCS(=O)(=O)O)c3ccc4ccccc4c3C2(C)C)=[N+](CCCCS(=O)(=O)[O-])c2ccc3ccccc3c21 [ICG, indocyanine green] |  | 9
CC1(C)C(=CC=C2CCCC(C=CC3=[N+](CCCCCC(=O)[O-])c4ccc(S(=O)(=O)[O-])cc4C3(C)C)=C2Oc2ccc(S(=O)(=O)[O-])cc2)N(CCCCS(=O)(=O)[O-])c2ccc(S(=O)(=O)[O-])cc21.[Na+].[Na+].[Na+].[Na+] [IRDye® 800CW] | excretes rapidly into bile | 
